Test results from patent US20260306491A1, “EGFR INHIBITOR FOR TREATING CANCERS COMPRISING ATYPICAL EGFR MUTATIONS” (ORIC Pharmaceuticals, Inc., priority 2023, published 2026).

Assays:
[1] = Biodistribution in plasma and brain after single oral dose in female CB17 SCID mice; type: in vivo; details: mouse
Experimental: Female non-tumor bearing Fox Chase CB17 SCID mice were orally administered a single dose as specified in Table B1.
Brain tissues were excised and plasma was collected from all the animals receiving Compound I, or tucatinib at 1 hour, 4 hours, and 8 hours post-administration. Tucatinib was used as a reference agent. Tucatinib is a clinically approved therapy for HER2 positive breast cancer patients with brain metastases. The harvested brains were rinsed in ice-cold phosphate-buffered saline and weighed. All plasma and brain samples were stored at approximately −80° C. until thawed for LC-MS/MS analysis.
Prior to analysis, brain tissues were homogenized 1:5 with phosphate buffer. Average free brain-to-free plasma ratio (Kp,uu) was calculated from individual mice by using total concentration values determined in the brain and plasma at individual time points, or by calculating the area under the curve (AUC) and converting the values to free concentration (or AUC) with in vitro binding parameters determined in the brain (fu,b) and plasma (fu,p) as follows:
Kp,uu=Brain Concentration (or AUC)*fu,b/Plasma Concentration (or AUC)*fu,p.
Free fraction in the brain (fu,b) and in plasma (fu,p) was determined with equilibrium dialysis as follows: The brain tissue homogenate or plasma from the mice were spiked to yield a final concentration of 1 μM Compound I, or 5 μM tucatinib. Compound I and tucatinib were incubated in equilibrium dialysis plate on a shaking incubator at 37° C. with 5% CO2 at 450 rpm for 8 hours and 24 hours, respectively. Following the incubation, aliquots of the matrix and the buffer samples were sampled and the concentration of Compound I, or tucatinib were determined.
where fu,b,d is fraction unbound determined with 20% brain homogenate.

[2] = system: EGFR exon 20 mutated NSCLC with active CNS metastases; assay: Clinical evaluation in one subject (Example 11); type: in vivo, human; details: hemifumarate, 75 mg QD
Experimental: A subject having EGFR exon 20 mutated non-small cell lung cancer was enrolled in a clinical study relating to Compound I. The cancer in the subject had been previously treated with chemotherapy (pemetrexed/cisplatin) and amivantamab. The subject presented with four active CNS non-target lesions that were previously untreated, and for which the subject had not undergone prior surgery or radiation treatment. The subject was enrolled in a dosing cohort that received 75 mg QD of Compound I in the form of a hemifumarate salt.

C=CC(=O)Nc1cc(Nc2cc(N3OCC[C@@H]3c3cc(F)cc(F)c3)ncn2)c(OC)cc1N1CCC(N2CCN(C3CC3)CC2)CC1 [Compound I, N-[2-[4-(4-cyclopropyl-1-piperazinyl)-1-piperidinyl]-5-[[6-[(3R)-3-(3,5-difluorophenyl)-2-isoxazolidinyl]-4-pyrimidinyl]amino]-4-methoxyphenyl]-2-propenamide]
Bioavailability profile in plasma and brain ([1]; oral 3 mg/kg): excellent bioavailability profile
Unbound brain concentration ([1]; oral 3 mg/kg, 8 h): below the limit of quantitation (BLOQ)
Unbound brain concentration compared to tucatinib ([1]; oral, 1 h and 4 h, 3 mg/kg Compound I vs 50 mg/kg tucatinib): much higher unbound brain concentration
Unbound plasma concentration relative to tucatinib ([1]; oral, 8 h, 3 mg/kg Compound I vs 50 mg/kg tucatinib): about 15 fold
Total area under the curve (AUC) higher than that of tucatinib ([1]; oral, first eight hours, 3 mg/kg Compound I vs 50 mg/kg tucatinib, brain context): about 800%
Blood-brain barrier penetration compared to tucatinib ([1]; oral, 3 mg/kg Compound I vs 50 mg/kg tucatinib): superior ability of Compound I to penetrate the blood-brain barrier as compared to tucatinib
Reduction of all target and non-target lesions ([2]; after cycle 1 (28 days)): 60%
Reduction of all 4 CNS lesions ([2]; after cycle 1, confirmed after cycle 2): 100%
Duration of dosing at data cutoff ([2]; continuing): on dosing cycle 9
EGFR-related adverse events ([2]; data cutoff Sep. 26, 2023): Grade 2 mucositis and Grade 2 paronychia
Reduction of all target and non-target lesions ([2]; end of cycle 2): 100%
Tumor response ([2]; end of cycle 2, confirmed): complete response
